Test results taken from patent publication US8859608B2, “Spiro amino compounds suitable for the treatment of inter alia sleep disorders and drug addiction” (Rottapharm Biotech S.R.L., priority 2009, dated 2014).
Where two headings read alike, the source gives them in different places.

Assays:
human OX1 receptor = target: T1, human OX1 receptor (Homo sapiens, UniProt O43613); assay: FLIPR measurement of intracellular calcium, antagonistic activity at OX1; conditions: for selectivity against the OX1 receptor: OX1 versus OX2, from the pKb table; for Kb: pKb OX1, CHO cells with human recombinant OX1, activated with orexin-A 3 nM, 1 nM-1 μM range, modified Cheng Prusoff
T1 sequence (O43613 1-425): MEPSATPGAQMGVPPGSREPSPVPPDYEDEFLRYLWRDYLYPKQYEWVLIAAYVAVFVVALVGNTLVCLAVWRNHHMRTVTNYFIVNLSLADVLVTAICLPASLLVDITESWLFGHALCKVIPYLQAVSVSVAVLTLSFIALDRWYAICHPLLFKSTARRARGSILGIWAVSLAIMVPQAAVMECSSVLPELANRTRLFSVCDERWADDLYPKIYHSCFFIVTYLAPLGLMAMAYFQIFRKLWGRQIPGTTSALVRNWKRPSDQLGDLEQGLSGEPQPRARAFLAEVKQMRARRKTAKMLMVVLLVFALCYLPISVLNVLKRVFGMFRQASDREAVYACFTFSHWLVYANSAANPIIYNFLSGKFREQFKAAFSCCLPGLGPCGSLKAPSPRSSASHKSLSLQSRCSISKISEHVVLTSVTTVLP
Description: (§2) Thus the plate was loaded with the calcium dye (Fluo-4NW/probenecid in HBSS, Hepes 20 mM, pH 7,4; Invitrogen) at 37° C. for 60 min. Afterward the temperature was equilibrated at 22° C. for 15 min and the [Ca2+]i measured directly on the plate by using a fluorescent plate reader (CeliLux Perkin Elmer).
(§3) After 5 min CHO cells were activated with orexin-A, 3 nM while HEK-293 cells were activated with orexin-B, 10 nM.
(§4) The antagonistic activity has been expressed as pKb (co-logarithm of the apparent dissociation constant calculated by using the modified Cheng Prusoff equation).

human OX2 receptor = target: T2, human OX2 receptor (Homo sapiens, UniProt O43614); assay: FLIPR measurement of intracellular calcium, antagonistic activity at OX2
T2 sequence (O43614 1-444): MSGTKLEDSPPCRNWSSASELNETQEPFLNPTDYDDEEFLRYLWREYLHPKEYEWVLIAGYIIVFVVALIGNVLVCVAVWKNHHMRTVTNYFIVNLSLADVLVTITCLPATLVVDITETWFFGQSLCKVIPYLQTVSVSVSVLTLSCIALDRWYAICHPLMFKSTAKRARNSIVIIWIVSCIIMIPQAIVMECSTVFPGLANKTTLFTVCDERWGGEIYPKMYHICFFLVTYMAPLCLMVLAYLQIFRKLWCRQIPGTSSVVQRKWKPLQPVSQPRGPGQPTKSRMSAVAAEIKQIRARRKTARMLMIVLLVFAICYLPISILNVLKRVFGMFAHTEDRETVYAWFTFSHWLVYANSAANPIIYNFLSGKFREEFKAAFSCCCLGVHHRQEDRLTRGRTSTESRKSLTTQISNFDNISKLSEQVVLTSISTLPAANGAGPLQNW
Description: as §2, §3, §4

[1] = Brain penetration in rats 1 hour after intravenous treatment; format: in vivo; conditions: male, Han Wistar, rat, one hour after intravenous administration, 1 mg/kg
Description: (§1) The pharmacokinetics of compound 4 were studied in male Han Wistar rats. The rats were treated intravenously and orally (n=3 for each dose route) with a compound 2 solution at the dose of 1 mg/kg, formulated in Lactic acid 150 mM pH 4.5 in water, 5% DMSO, 10% TWEEN 80. The rats were fitted with a jugular cannula for serial sampling, a full profile was acquired for each rat. Another group of rats (n=3) was treated intravenously and sacrificed after 1 hour harvesting arterial blood and brain to assess brain penetration. Plasma and brain extracts were quantitatively analyzed using a specific and sensitive LC-MS/MS bioanalytical method. Inter-individual variations between the three rats in each group were limited (CV for pharmacokinetic parameters was below 30%).

[2] = Pharmacokinetics in male Han Wistar rats, intravenous and oral; format: in vivo; conditions: 1 mg/kg
Description: as §1

[3] = male, Han Wistar, plasma, rat, intravenous

Kb (human OX2 receptor)	Kb (human OX1 receptor)	Compound	other results
> 10000 nM	25.1 nM	Cc1nc(C(=O)N2CCC3(CC3)CC2CNc2ccc(C(F)(F)F)cn2)c(-c2ccccc2)s1 (racemic) [Compound 7, (±) (2-methyl-5-phenylthiazol-4-yl)(5-((5-(trifluoromethyl)pyridin-2-ylamino)methyl)-6-azaspiro[2.5]octan-6-yl)methanone]	selectivity against the OX1 receptor (human OX1 receptor): same behaviour
> 10000 nM	100 nM	O=C(c1ccccc1OCC1CC1)N1CCC2(CC2)CC1CNc1ccc(Cl)cn1 (racemic) [Compound 9, (±) (5-((5-chloropyridin-2-ylamino)methyl)-6-azaspiro[2.5]octan-6-yl)(2-(cyclopropylmethoxy)phenyl)methanone]	
> 10000 nM	126 nM	COC(=O)c1cc(Cl)ccc1NCC1CC2(CCN1C(=O)c1nc(C)sc1-c1ccc(F)cc1)CC2 (racemic) [Compound 15, (±)methyl 5-chloro-2-((6-(5-(4-fluorophenyl)-2-methylthiazole-4-carbonyl)-6-azaspiro[2.5]octan-5-yl)methylamino)benzoate]	
> 1000 nM	12.6 nM	Cc1nc(C(=O)N2CCC3(CC3)CC2CNc2ccc(Cl)cn2)c(-c2ccccc2)s1 (single isomer, unassigned) [Compound 5, (5-((5-chloropyridin-2-ylamino)methyl)-6-azaspiro[2.5]octan-6-yl)(2-methyl-5-phenylthiazol-4-yl)methanone]	
> 10000 nM	20 nM	Cc1nc(C(=O)N2CCC3(CC3)CC2CNc2ccc(C(F)(F)F)cn2)c(-c2ccccc2)s1 (single isomer, unassigned) [Compound 8, (2-methyl-5-phenylthiazol-4-yl)(5-((5-(trifluoromethyl)pyridin-2-ylamino)methyl)-6-azaspiro[2.5]octan-6-yl)methanone]	selectivity against the OX1 receptor (human OX1 receptor): same behaviour
> 10000 nM	31.6 nM	Cc1nc(C(=O)N2CCC3(CC3)C[C@H]2CNc2cccc(Cl)n2)c(-c2ccccc2)s1 [Compound 17, (S)-(5-(((6-chloropyridin-2-yl)amino)methyl)-6-azaspiro[2.5]octan-6-yl)(2-methyl-5-phenylthiazol-4-yl)methanone]	
> 10000 nM	50.1 nM	Cc1nc(C(=O)N2CCC3(CC3)C[C@H]2CNc2cccc(C(F)(F)F)n2)c(-c2ccccc2)s1 [Compound 18, (S)-(2-methyl-5-phenylthiazol-4-yl)(5-(((6-(trifluoromethyl)pyridin-2-yl)amino)methyl)-6-azaspiro[2.5]octan-6-yl)methanone]	
> 10000 nM	20 nM	Cc1cc(C)nc(NC[C@@H]2CC3(CCN2C(=O)c2nc(C)sc2-c2ccccc2)CC3)n1 [Compound 22, (S)-(5-(((4,6-dimethylpyrimidin-2-yl)amino)methyl)-6-azaspiro[2.5]octan-6-yl)(2-methyl-5-phenylthiazol-4-yl)methanone]	
79.4 nM	5.01 nM	Cc1cc(C)nc(NC[C@@H]2CC3(CCN2C(=O)c2ccccc2-c2ccccc2)CC3)n1 [Compound 35, (S)-[1,1′-biphenyl]-2-yl(5-(((4,6-dimethylpyrimidin-2-yl)amino)methyl)-6-azaspiro[2.5]octan-6-yl)methanone]	
> 10000 nM		Cc1cc(C)nc(NC[C@@H]2CC3(CCN2C(=O)c2cc(Cl)ccc2Cl)CC3)n1 [Compound 37, (S)-(2,5-dichlorophenyl)(5-(((4,6-dimethylpyrimidin-2-yl)amino)methyl)-6-azaspiro[2.5]octan-6-yl)methanone]	
> 10000 nM	12.6 nM	Cc1ccnc(NC[C@@H]2CC3(CCN2C(=O)c2ccccc2-c2ccccc2)CC3)n1 [Compound 39, (S)-[1,1′-biphenyl]-2-yl(5-(((4-methylpyrimidin-2-yl)amino)methyl)-6-azaspiro[2.5]octan-6-yl)methanone]	
> 10000 nM	7.94 nM	Cc1ccc(-n2nccn2)c(C(=O)N2CC3(CC3)C[C@H]2CNc2ccc(Cl)cn2)c1 [Compound 49, (S)-(6-(((5-chloropyridin-2-yl)amino)methyl)-5-azaspiro[2.4]heptan-5-yl)(5-methyl-2-(2H-1,2,3-triazol-2-yl)phenyl)methanone]	
> 10000 nM	79.4 nM	Cc1ccc(-n2nccn2)c(C(=O)N2CC3(CC3)C[C@H]2CNc2cccc(C)n2)c1 [Compound 50, (S)-(5-methyl-2-(2H-1,2,3-triazol-2-yl)phenyl)(6-(((6-methylpyridin-2-yl)amino)methyl)-5-azaspiro[2.4]heptan-5-yl)methanone]	
> 10000 nM	6.31 nM	Cc1ccc(-c2ncccn2)c(C(=O)N2CC3(CC3)C[C@H]2CNc2ccc(Cl)cn2)c1 [Compound 51, (S)-(6-(((5-chloropyridin-2-yl)amino)methyl)-5-azaspiro[2.4]heptan-5-yl)(5-methyl-2-(pyrimidin-2-yl)phenyl)methanone]	
31.6 nM	126 nM	Cc1cccc(NCC2CCCCN2C(=O)c2ccccc2-c2ccccc2)n1 (stereo not shown) [comparison 1, reference compound]	
25.1 nM	10 nM	Cc1nc(C(=O)N2CCCCC2CNc2ccc(Cl)cn2)c(-c2ccccc2)s1 (stereo not shown) [comparison 2, reference compound]	
3.16 nM	1 nM	Cc1cccc(NCC2CCCCN2C(=O)c2nc(C)sc2-c2ccccc2)n1 (stereo not shown) [comparison 3, reference compound]	
158 nM	3.16 nM	O=C(c1ccccc1OCC1CC1)N1CCCCC1CNc1ccc(Cl)cn1 (stereo not shown) [comparison 4, reference compound]	
3.98 nM	3.16 nM	Cc1cccc(NCC2CCCCN2C(=O)c2nc(C)sc2-c2ccc(F)cc2)n1 (stereo not shown) [comparison 5, reference compound]	

Compound	Kb (human OX2 receptor)	Kb (human OX1 receptor)	other results
Cc1cccc(NCC2CC3(CCN2C(=O)c2nc(C)sc2-c2ccccc2)CC3)n1 (racemic) [Compound 1, (±) (2-methyl-5-phenylthiazol-4-yl)(5-((6-methylpyridin-2-ylamino)methyl)-6-azaspiro[2.5]octan-6-yl)methanone]	> 10000 nM		selectivity against the OX1 receptor (human OX1 receptor): same behaviour
Cc1cccc(NCC2CC3(CCN2C(=O)c2nc(C)sc2-c2ccccc2)CC3)n1 (single isomer, unassigned) [Compound 2, (2-methyl-5-phenylthiazol-4-yl)(5-((6-methylpyridin-2-ylamino)methyl)-6-azaspiro[2.5]octan-6-yl)methanone]	> 10000 nM	6.31 nM	selectivity against the OX1 receptor (human OX1 receptor): highly selective; concentration at 1 h ([1]; arterial plasma, read-out: average arterial plasmatic level): 126 ng/mL; Kp at 1 h ([1]; brain/plasma, read-out: Brain/plasma concentrations ratio): 0.66; concentration at 1 h ([1]; brain, read-out: average total brain level): 83 ng/g; clearance as share of rat liver blood flow ([2]; intravenous): 40%; AUC [2, 3]: ~740 ng·h/mL; clearance [2, 3]: ~5.33 mL/min; Vd ([2]; male, Han Wistar, plasma, rat, intravenous, read-out: average volume of distribution (Vss)): 0.33 L; bioavailability ([2]; male, Han Wistar, plasma, rat, oral solution, read-out: absolute oral bioavailability): 50%; AUC ([2]; male, Han Wistar, plasma, rat, oral): ~360 ng·h/mL; oral AUC as share of AUC after intravenous administration ([2]; rat): about 50%; time of maximum concentration ([2]; rat, oral): ≤ 30 min
